# Earlier results as cited in US20150250887A1, “METHOD OF PREPARING RESIN TINCTURES” (JALEVA PHARMACEUTICALS, LLC, priority 2012, published 2015).
# Test system: skin
# Conditions: not given
row,SMILES,skin irritant properties
1,CC(=O)O.CC(=O)O.NC(=N\CCCCCC/N=C(N)/N=C(\N)Nc1ccc(Cl)cc1)/N=C(\N)Nc1ccc(Cl)cc1 [chlorhexidine acetate],strong skin irritant
2,N=C(NCCCCCCNC(=N)NC(=N)Nc1ccc(Cl)cc1)NC(=N)Nc1ccc(Cl)cc1.O=C(O)[C@H](O)[C@@H](O)[C@H](O)[C@H](O)CO.O=C(O)[C@H](O)[C@@H](O)[C@H](O)[C@H](O)CO [chlorhexidine gluconate],does not exhibit as strong irritant properties

# Test system: not given
# Conditions: pH 7.4
row,SMILES,log D
1,CN1CCCC1c1cccnc1 (stereo not shown) [nicotine],−0.62
2,C[C@]12CC[C@H]3[C@@H](CCC4=CC(=O)CC[C@@]43C)[C@@H]1CC[C@@H]2O [testosterone],3.18

# Same assay, conditions: pH about 7.4
row,SMILES,log D
1,O=C(O)Cc1ccccc1Nc1c(Cl)cccc1Cl [diclofenac],1.44
2,CNS(=O)(=O)CCc1ccc2[nH]cc(C3CCN(C)CC3)c2c1 [naratriptan],−0.85
3,Cc1nccn1CC1CCc2c(c3ccccc3n2C)C1=O (stereo not shown) [ondansetron],1.2
4,CCCc1nn(C)c2c(=O)[nH]c(-c3cc(S(=O)(=O)N4CCN(C)CC4)ccc3OCC)nc12 [sildenafil],2.26
5,CC1=C(/C=C/C(C)=C/C=C/C(C)=C/C(=O)O)C(C)(C)CCC1 [tretinoin],4.19
6,CCCc1nc(C)c2c(=O)[nH]c(-c3cc(S(=O)(=O)N4CCN(CC)CC4)ccc3OCC)nn12 [vardenafil],3.71
